Laboratory results as given in patent publication US11229652B2, “Treatments for autoimmune disease” (THE PROVOST, FELLOWS, FOUNDATION SCHOLARS, AND THE OTHER …, priority 2014, dated 2022).
One block for each molecule: values may come before it.

How the values were obtained:
[1] = target: queuine-insertase enzyme complex (Homo sapiens, UniProt Q9BXR0); assay: [14C] guanine displacement assay (queuine-insertase substrate); type: biochemical
From the text: The skilled reader will be aware of methods for determining whether or not a particular molecule is a substrate for the queuine-insertase enzyme complex. For example, molecules capable of acting as a queuine-insertase enzyme complex substrate may be identified by use of a displacement assay as described below (FIG. 1):
Production of [8-^14C] Guanine Labeled tRNA (tRNA*)
Before adding the 8-[^14C] guanine solution to the reaction the solution was neutralised with an equal volume (vol/vol) 0.01 M NaOH, as the [8-^14C] Guanine is supplied in 0.01 M HCl aqueous solution. A stock solution of yeast tRNA from Saccharomyces cerevisiae was made to a concentration of 2 absorbance units (260 nm) in ultrapure nuclease-free water. The recombinant Escherichia coli (E. coli) tRNA guanine transglycosylase enzyme (E. coli TGT) containing an N-terminal polyhistidine tag was produced in BL21 BL21(DE3) tgt:Kmr cells as described previously (Boland et al., 2009).
The reaction was incubated for 2 h at 37° C. After incubation the reaction was made up to 400 μL with buffer. […] The tRNA* pellet was resuspended in 20 μL nuclease-free water and the concentration measured spectrophotometrically at A260. […]
After incubation the reaction was loaded onto the column and spun at 0.1×g for 10 seconds. […] The vials containing the flow-through and washes are counted for displaced [^14C] guanine. […]

HPRT [2] = target: T1, HPRT (Homo sapiens, UniProt P00492); assay: HPRT assay (substrate or inhibitor of HPRT); type: biochemical; settings: in vitro, FIG. 2
T1 sequence (P00492 1-218): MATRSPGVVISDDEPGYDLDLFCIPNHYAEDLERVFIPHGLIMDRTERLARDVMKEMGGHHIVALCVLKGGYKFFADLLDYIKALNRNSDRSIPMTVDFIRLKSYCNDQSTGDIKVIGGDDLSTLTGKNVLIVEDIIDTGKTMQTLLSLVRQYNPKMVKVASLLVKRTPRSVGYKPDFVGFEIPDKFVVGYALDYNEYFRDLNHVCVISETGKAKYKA
From the text: Similarly, the skilled reader will be aware of methods suitable for determining whether a compound is a substrate or inhibitor of HPRT. For example, molecules that are […] for HPRT may be identified by use of the following assay:
Assay to Evaluate Compounds as Substrates or Inhibitors of the Hypoxanthine-Guanine Phosphoribosyltransferase Enzyme or ‘HPRT Assay’ (FIG. 2).
Preparation and Equilibration of Column:
Dowex-1×8, mesh size 200-400, was weighed out in a sterile 50 ml tube and washed 3 times with aqueous 1 M HCl to charge the resin. The resin was then washed 5-6 times with (20 mls each) Milli-Q H2O until a neutral pH was reached. Columns (Bio-rad 10 mL plastic columns) were set up with 1 mL of wet Dowex (wet mix applied, allowed to settle and more applied until a packed volume of 1 mL was reached). The packed resin was rinsed with 10 volumes (v/v) milli-Q H2O to ensure that a neutral pH and consistent packing was achieved.
HPRT Reactions are set up in 100 μL volume in triplicate with the following components: […]
After inactivation, the reactions were cooled to room temperature (using ice), before being applied to a 1 mL packed resin column of Dowex-1×8, mesh size 200-400. […] 15 mL of scintillation cocktail (Ecoscint A) was added and vials counted to evaluate the level of conversion of [8-^14C]-guanine to GMP. […]

wild-type T cells = assay: Proliferation of wild-type cells; type: cell-based; settings: 100 μM, FIG. 4a
From the text: (§1) FIGS. 4a, 4b, 4c, and 4d depict the molecules effects on total percentage of proliferation in wild-type spleenocytes, HPRT knockout spleenocytes, HPRT:TGT double knockout spleenocytes, and wild-type versus single TGT knockout spleenocytes respectively;

TGT KO cells = assay: Proliferation of TGT knockout cells; type: cell-based; settings: 100 μM, FIG. 4d
From the text: as §1

[3] = tested on: HPRT:TGT double knockout spleenocytes; assay: Proliferation of TGT:HPRT double knockout cells; type: cell-based; settings: 100 μM, FIG. 4c
From the text: as §1

[4] = tested on: chronic monophasic EAE disease; assay: Chronic monophasic EAE disease in mice; type: in vivo, mice (C57BL/6)
Experimental: To assess the potential of these compounds in vivo, a chronic monophasic EAE disease in mice was induced before treatment with the new chemical entity (NCE). EAE Disease was induced in 8-10 week old female mice (C57BL/6) by sub-cutaneous (s.c.) injection of 200 II emulsion containing 150 μg […] peptide (Genscript) in Complete Freund's Adjuvant (CFA; containing 5 mg/ml heat-inactivated Mycobacterium tuberculosis). On the same day, mice were administered 500 ng Pertussis Toxin (Kaketsuken, Japan) intraperitoneally (i.p.) and again two days later. Disease severity was recorded every 24 hours: 0-Normal; 1-flaccid tail; 2-imparied/wobbly gait; 3-complete hind limb weakness; 4-hind limb and forelimb paralysis; 5-moribund state/dead. Protocol is based on the Nature Protocols for Active induction of experimental allergic encephalomyelitis, which includes the scoring methodology: • Stromnes I M, Goverman J M (2006) Active induction of experimental allergic encephalomyelitis. Nat Protoc. 1(4):1810-9.
The EAE score relates to an assessment of disease progression with respect to issues like tail paralysis and limb paralysis, a higher score is a worse condition. A score of 1 indicates decreased tail tone, a score of 2 indicates hind leg weakness (paraparesis), a score of 3 indicates hind limb paralysis and/or incontinence. Note that the untreated animals have a continuous and progressive worsening of disease.
This contrasts with the sustained drop in body weight of non-treated EAE diseased animals to a level 86.4% that of controls at 21 dpi (17.8 grams versus 20.6 grams). Motor coordination and hind-limb strength were also evaluated by the ability of mice to cross a horizontal bar (FIG. 7). Non-diseased animals crossed the bar with an average time of 4.3±0.57 seconds.

HPRT [5] = target: T1, HPRT; settings: higher for HPRT; cited from earlier work
[6] = tested on: Experimental Autoimmune Encephalomyelitis; EAE; settings: earlier work; cited from earlier work
DNA = settings: incorporated into DNA after HPRT activity; cited from earlier work

Chain of queuine-insertase enzyme complex (Q9BXR0 whole entry): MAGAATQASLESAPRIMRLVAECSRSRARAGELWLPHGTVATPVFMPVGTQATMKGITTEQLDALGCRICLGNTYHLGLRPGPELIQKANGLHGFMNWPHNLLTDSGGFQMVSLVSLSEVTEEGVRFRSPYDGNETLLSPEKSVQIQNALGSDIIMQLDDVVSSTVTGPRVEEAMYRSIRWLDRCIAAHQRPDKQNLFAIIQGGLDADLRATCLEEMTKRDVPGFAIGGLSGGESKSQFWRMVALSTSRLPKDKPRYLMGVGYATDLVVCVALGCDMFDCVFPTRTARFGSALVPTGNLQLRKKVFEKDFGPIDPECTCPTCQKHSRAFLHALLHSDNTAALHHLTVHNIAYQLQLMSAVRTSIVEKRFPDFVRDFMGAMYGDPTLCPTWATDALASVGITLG
Chain of queuine-insertase enzyme complex (Q9H974 whole entry partner): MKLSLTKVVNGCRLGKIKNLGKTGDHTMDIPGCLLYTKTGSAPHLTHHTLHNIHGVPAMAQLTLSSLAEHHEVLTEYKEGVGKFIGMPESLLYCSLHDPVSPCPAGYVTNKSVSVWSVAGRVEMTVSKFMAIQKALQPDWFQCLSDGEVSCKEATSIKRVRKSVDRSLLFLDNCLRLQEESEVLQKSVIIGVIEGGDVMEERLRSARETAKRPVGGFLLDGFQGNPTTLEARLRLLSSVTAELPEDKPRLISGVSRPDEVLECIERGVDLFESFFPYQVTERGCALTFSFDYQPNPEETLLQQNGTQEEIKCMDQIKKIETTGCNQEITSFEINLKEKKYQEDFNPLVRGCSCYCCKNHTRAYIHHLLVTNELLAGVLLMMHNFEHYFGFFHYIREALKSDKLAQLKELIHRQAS

substrate for TGT (queuine-insertase enzyme complex) ([1]; in vitro, recombinant TGT enzyme, FIG. 1): substrate for TGT | substrate or inhibitor of HPRT (HPRT [2]): not to be a substrate or inhibitor
Compound: Cl.Nc1nc2[nH]cc(CNCCCc3ccccc3)c2c(=O)[nH]1 [Compound I, N-((2-amino-4-oxo-4,7-dihydro-3H-pyrrolo[2,3-d]pyrimidin-5-yl)methyl)-3-phenylpropan-1-aminium chloride]
proliferation (wild-type T cells): less than 50% | effect on proliferation (TGT KO cells): lack of effect | effect on proliferation [3]: essentially unaffected | EAE score outcome after 4 daily treatments ([4]; EAE mice, 30 mg/kg, i.p., FIG. 5): disease free | time to reversal of symptoms ([4]; EAE mice, 30 mg/kg, i.p., highest dosage, FIG. 5): ≤ 24 h | EAE disease progression ([4]; EAE mice, lower doses, FIG. 5): disease progression was halted and reversed | motor coordination and hind-limb strength (horizontal bar crossing) ([4]; EAE mice, within 4 treatments, FIG. 7): fully restored the performance of EAE diseased mice to control levels | weight level relative to controls ([4]; treated EAE mice, 21 days post inoculation, FIG. 6): 96.6% | body weight ([4]; treated EAE mice, 21 days post inoculation, controls 20.6 grams, FIG. 6): 19.9 grams

Compound: Nc1nc2nc[nH]c2c(=S)[nH]1 [Example 6TG, 6-thioguanine]
substrate potency for HPRT relative to queuine-insertase enzyme complex (HPRT [5]): approx. 10 fold | effect on the murine model of chronic MS (EAE) [6]: dramatic effect | genotoxicity (DNA): genotoxic

maximum displacement of [14C] guanine ([1]; 200 μM compound, background ≤10 pmol, ≥50 pmol counts as positive substrate): 240 pmol
Compound: Nc1nc2[nH]cc(CN[C@H]3C=C[C@H](O)[C@@H]3O)c2c(=O)[nH]1 [queuine, 2-amino-5-((((1S,4S,5R)-4,5-dihydroxycyclopent-2-en-1-yl)amino)methyl)-3,7-dihydro-4H-pyrrolo[2,3-d]pyrimidin-4-one, reference compound]
